Counter-ions that a name gives are not always drawn.
What was measured:
Experiment in all cases: Post-emergence efficacy, Method A
Assay type in all cases: in vivo
[1] = test system: Amaranthus palmeri (AMAPA); conditions: 100=total damage to plant, 0=no damage, evaluated after 7 and 14 days, read-out: Control of weed species after post-emergence application, AMAPA
Setaria faberi (SETFA) = conditions: 100=total damage to plant, 0=no damage, evaluated after 7 and 14 days, read-out: Control of weed species after post-emergence application, SETFA
[2] = test system: Echinochloa crus-galli (ECHCG); conditions: 100=total damage to plant, 0=no damage, evaluated after 7 and 14 days, read-out: Control of weed species after post-emergence application, ECHCG
[3] = test system: Ipomoea hederacea (IPOHE); conditions: 100=total damage to plant, 0=no damage, evaluated after 7 and 14 days, read-out: Control of weed species after post-emergence application, IPOHE
Lolium perenne (LOLPE) = conditions: 100=total damage to plant, 0=no damage, evaluated after 7 and 14 days, read-out: Control of weed species after post-emergence application, LOLPE
[4] = test system: Digitaria sanguinalis (DIGSA); conditions: 100=total damage to plant, 0=no damage, evaluated after 7 and 14 days, read-out: Control of weed species after post-emergence application, DIGSA
[5] = test system: Chenopodium album (CHEAL); conditions: 100=total damage to plant, 0=no damage, evaluated after 7 and 14 days, read-out: Control of weed species after post-emergence application, CHEAL
Eleusine indica (ELEIN) = conditions: 100=total damage to plant, 0=no damage, evaluated after 7 and 14 days, read-out: Control of weed species after post-emergence application, ELEIN
[6] = test system: Euphorbia heterophylla (EPHHL); conditions: 100=total damage to plant, 0=no damage, evaluated after 7 and 14 days, read-out: Control of weed species after post-emergence application, EPHHL

## O=C(O)CC[n+]1ccc(-c2nc(C(F)(F)F)ns2)cc1 [Compound A48, 3-[4-[3-(trifluoromethyl)-1,2,4-thiadiazol-5-yl]pyridin-1-ium-1-yl]propanoic acid acetate]
[1]; 125 g/Ha
  pest or weed control at 125 g/ha: 90%
Setaria faberi (SETFA); 125 g/Ha
  pest or weed control at 125 g/ha: 20%
[2]; 125 g/Ha
  pest or weed control at 125 g/ha: 0%
[3]; 125 g/Ha
  pest or weed control at 125 g/ha: 0%
Lolium perenne (LOLPE); 125 g/Ha
  pest or weed control at 125 g/ha: 10%
[4]; 125 g/Ha
  pest or weed control at 125 g/ha: 0%
[5]; 125 g/Ha
  pest or weed control at 125 g/ha: 10%
Eleusine indica (ELEIN); 125 g/Ha
  pest or weed control at 125 g/ha: 0%
[6]; 125 g/Ha
  pest or weed control at 125 g/ha: 30%

## O=C(O)C[n+]1ccc(-c2csnn2)cc1 [Compound A53]
[1]
  pest or weed control at 500 g/ha: 10%
Setaria faberi (SETFA)
  pest or weed control at 500 g/ha: 10%
[2]
  pest or weed control at 500 g/ha: 10%
[3]
  pest or weed control at 500 g/ha: 20%
Lolium perenne (LOLPE)
  pest or weed control at 500 g/ha: 0%
[4]
  pest or weed control at 500 g/ha: 0%
[5]
  pest or weed control at 500 g/ha: 10%
Eleusine indica (ELEIN)
  pest or weed control at 500 g/ha: 0%
[6]
  pest or weed control at 500 g/ha: 20%

## Cn1nnnc1-c1cc[n+](CS(=O)(=O)[O-])cc1 [Compound A57]
[1]
  pest or weed control at 500 g/ha: 100%
Setaria faberi (SETFA)
  pest or weed control at 500 g/ha: 0%
[2]
  pest or weed control at 500 g/ha: 60%
[3]
  pest or weed control at 500 g/ha: 0%
Lolium perenne (LOLPE)
  pest or weed control at 500 g/ha: 0%
[4]
  pest or weed control at 500 g/ha: 30%
[5]
  pest or weed control at 500 g/ha: 80%
Eleusine indica (ELEIN)
  pest or weed control at 500 g/ha: 20%
[6]
  pest or weed control at 500 g/ha: 20%

## O=S(=O)([O-])OCC[n+]1ccc(-c2nnco2)cc1 [Compound A64]
[1]
  pest or weed control at 500 g/ha: 50%
Setaria faberi (SETFA)
  pest or weed control at 500 g/ha: 20%
[2]
  pest or weed control at 500 g/ha: 50%
[3]
  pest or weed control at 500 g/ha: 20%
Lolium perenne (LOLPE)
  pest or weed control at 500 g/ha: 10%
[4]
  pest or weed control at 500 g/ha: 30%
[5]
  pest or weed control at 500 g/ha: 30%
Eleusine indica (ELEIN)
  pest or weed control at 500 g/ha: 20%
[6]
  pest or weed control at 500 g/ha: 30%

## O=S(=O)([O-])OCC[n+]1ccc(-c2csnn2)cc1 [Compound A65, 2-[4-(thiadiazol-4-yl)pyridin-1-ium-1-yl]ethyl sulfate]
[1]
  pest or weed control at 500 g/ha: 30%
Setaria faberi (SETFA)
  pest or weed control at 500 g/ha: 10%
[2]
  pest or weed control at 500 g/ha: 20%
[3]
  pest or weed control at 500 g/ha: 20%
Lolium perenne (LOLPE)
  pest or weed control at 500 g/ha: 10%
[4]
  pest or weed control at 500 g/ha: 30%
[5]
  pest or weed control at 500 g/ha: 20%
Eleusine indica (ELEIN)
  pest or weed control at 500 g/ha: 20%
[6]
  pest or weed control at 500 g/ha: 20%

## OCC[n+]1ccc(-c2nnc(-c3ccccc3)o2)cc1 [Compound A69, 2-[4-(5-phenyl-1,3,4-oxadiazol-2-yl)pyridin-1-ium-1-yl]ethanol 2,2,2-trifluoroacetate]
[1]
  pest or weed control at 500 g/ha: 20%
Setaria faberi (SETFA)
  pest or weed control at 500 g/ha: 10%
[2]
  pest or weed control at 500 g/ha: 20%
[3]
  pest or weed control at 500 g/ha: 20%
Lolium perenne (LOLPE)
  pest or weed control at 500 g/ha: 10%
[4]
  pest or weed control at 500 g/ha: 10%
[5]
  pest or weed control at 500 g/ha: 30%
Eleusine indica (ELEIN)
  pest or weed control at 500 g/ha: 30%
[6]
  pest or weed control at 500 g/ha: 20%

## Cc1nc(-c2cc[n+](CCCS(=O)(=O)[O-])cc2)no1 [Compound A71]
[1]
  pest or weed control at 500 g/ha: 20%
Setaria faberi (SETFA)
  pest or weed control at 500 g/ha: 10%
[2]
  pest or weed control at 500 g/ha: 20%
[3]
  pest or weed control at 500 g/ha: 30%
Lolium perenne (LOLPE)
  pest or weed control at 500 g/ha: 0%
[4]
  pest or weed control at 500 g/ha: 30%
[5]
  pest or weed control at 500 g/ha: 50%
Eleusine indica (ELEIN)
  pest or weed control at 500 g/ha: 20%
[6]
  pest or weed control at 500 g/ha: 40%

## Cn1nccc1-c1cc[n+](CCOS(=O)(=O)[O-])cc1 [Compound A74]
[1]
  pest or weed control at 500 g/ha: 10%
Setaria faberi (SETFA)
  pest or weed control at 500 g/ha: 20%
[2]
  pest or weed control at 500 g/ha: 20%
[3]
  pest or weed control at 500 g/ha: 10%
Lolium perenne (LOLPE)
  pest or weed control at 500 g/ha: 10%
[4]
  pest or weed control at 500 g/ha: 30%
[5]
  pest or weed control at 500 g/ha: 40%
Eleusine indica (ELEIN)
  pest or weed control at 500 g/ha: 20%
[6]
  pest or weed control at 500 g/ha: 20%

## O=C(O)CC[n+]1ccc(-c2nc(C(F)(F)F)ns2)c(Br)c1 [Compound A79, 3-[3-bromo-4-[3-(trifluoromethyl)-1,2,4-thiadiazol-5-yl]pyridin-1-ium-1-yl]propanoic acid acetate]
[1]
  pest or weed control at 500 g/ha: 90%
Setaria faberi (SETFA)
  pest or weed control at 500 g/ha: 70%
[2]
  pest or weed control at 500 g/ha: 80%
[3]
  pest or weed control at 500 g/ha: 40%
Lolium perenne (LOLPE)
  pest or weed control at 500 g/ha: 30%
[4]
  pest or weed control at 500 g/ha: 80%
[5]
  pest or weed control at 500 g/ha: 40%
Eleusine indica (ELEIN)
  pest or weed control at 500 g/ha: 90%
[6]
  pest or weed control at 500 g/ha: 60%

## O=C(O)C[n+]1ccc(-c2ccsn2)cc1 [Compound A81]
[1]
  pest or weed control at 500 g/ha: 70%
Setaria faberi (SETFA)
  pest or weed control at 500 g/ha: 10%
[2]
  pest or weed control at 500 g/ha: 10%
[3]
  pest or weed control at 500 g/ha: 0%
Lolium perenne (LOLPE)
  pest or weed control at 500 g/ha: 0%
[4]
  pest or weed control at 500 g/ha: 10%
[5]
  pest or weed control at 500 g/ha: 40%
Eleusine indica (ELEIN)
  pest or weed control at 500 g/ha: 40%
[6]
  pest or weed control at 500 g/ha: 20%

## O=C(O)C[n+]1ccc(-c2ncsn2)cc1 [Compound A83]
[1]
  pest or weed control at 500 g/ha: 20%
Setaria faberi (SETFA)
  pest or weed control at 500 g/ha: 10%
[2]
  pest or weed control at 500 g/ha: 0%
[3]
  pest or weed control at 500 g/ha: 10%
Lolium perenne (LOLPE)
  pest or weed control at 500 g/ha: 10%
[4]
  pest or weed control at 500 g/ha: 20%
[5]
  pest or weed control at 500 g/ha: 30%
Eleusine indica (ELEIN)
  pest or weed control at 500 g/ha: 10%
[6]
  pest or weed control at 500 g/ha: 50%

## O=S(=O)([O-])C[n+]1ccc(-c2nccs2)cc1 [Compound A84]
[1]
  pest or weed control at 500 g/ha: 70%
Setaria faberi (SETFA)
  pest or weed control at 500 g/ha: 10%
[2]
  pest or weed control at 500 g/ha: 30%
[3]
  pest or weed control at 500 g/ha: 10%
Lolium perenne (LOLPE)
  pest or weed control at 500 g/ha: 10%
[4]
  pest or weed control at 500 g/ha: 10%
[5]
  pest or weed control at 500 g/ha: 60%
Eleusine indica (ELEIN)
  pest or weed control at 500 g/ha: 50%
[6]
  pest or weed control at 500 g/ha: 50%

## O=S(=O)([O-])C[n+]1ccc(-c2nc(C(F)(F)F)ns2)cc1 [Compound A85]
[1]
  pest or weed control at 500 g/ha: 100%
Setaria faberi (SETFA)
  pest or weed control at 500 g/ha: 100%
[2]
  pest or weed control at 500 g/ha: 100%
[3]
  pest or weed control at 500 g/ha: 100%
Lolium perenne (LOLPE)
  pest or weed control at 500 g/ha: 90%
[4]
  pest or weed control at 500 g/ha: 100%
[5]
  pest or weed control at 500 g/ha: 90%
Eleusine indica (ELEIN)
  pest or weed control at 500 g/ha: 100%
[6]
  pest or weed control at 500 g/ha: 100%

## O=C(O)C[n+]1ccc(-c2ccns2)cc1 [Compound A86]
[1]
  pest or weed control at 500 g/ha: 40%
Setaria faberi (SETFA)
  pest or weed control at 500 g/ha: 10%
[2]
  pest or weed control at 500 g/ha: 20%
[3]
  pest or weed control at 500 g/ha: 10%
Lolium perenne (LOLPE)
  pest or weed control at 500 g/ha: 0%
[4]
  pest or weed control at 500 g/ha: 10%
[5]
  pest or weed control at 500 g/ha: 10%
Eleusine indica (ELEIN)
  pest or weed control at 500 g/ha: 20%
[6]
  pest or weed control at 500 g/ha: 40%

## O=S(=O)([O-])C[n+]1ccc(-c2ccns2)cc1 [Compound A87]
[1]
  pest or weed control at 500 g/ha: 0%
Setaria faberi (SETFA)
  pest or weed control at 500 g/ha: 20%
[2]
  pest or weed control at 500 g/ha: 20%
[3]
  pest or weed control at 500 g/ha: 0%
Lolium perenne (LOLPE)
  pest or weed control at 500 g/ha: 0%
[4]
  pest or weed control at 500 g/ha: 0%
[5]
  pest or weed control at 500 g/ha: 10%
Eleusine indica (ELEIN)
  pest or weed control at 500 g/ha: 0%
[6]
  pest or weed control at 500 g/ha: 20%

## N#Cc1csc(-c2cc[n+](CCC(=O)O)cc2)n1 [Compound A88]
[1]
  pest or weed control at 500 g/ha: 10%
Setaria faberi (SETFA)
  pest or weed control at 500 g/ha: 0%
[2]
  pest or weed control at 500 g/ha: 0%
[3]
  pest or weed control at 500 g/ha: 0%
Lolium perenne (LOLPE)
  pest or weed control at 500 g/ha: 0%
[4]
  pest or weed control at 500 g/ha: 0%
[5]
  pest or weed control at 500 g/ha: 20%
Eleusine indica (ELEIN)
  pest or weed control at 500 g/ha: 0%
[6]
  pest or weed control at 500 g/ha: 90%

## N#Cc1nsc(-c2cc[n+](CCC(=O)O)cc2)n1 [Compound A89]
[1]
  pest or weed control at 500 g/ha: 30%
Setaria faberi (SETFA)
  pest or weed control at 500 g/ha: 80%
[2]
  pest or weed control at 500 g/ha: 60%
[3]
  pest or weed control at 500 g/ha: 10%
Lolium perenne (LOLPE)
  pest or weed control at 500 g/ha: 10%
[4]
  pest or weed control at 500 g/ha: 90%
[5]
  pest or weed control at 500 g/ha: 30%
Eleusine indica (ELEIN)
  pest or weed control at 500 g/ha: 80%
[6]
  pest or weed control at 500 g/ha: 20%
